Data set [1] concerns the target PD-1 protein. The note with it: Table S5, supplement reference list, read-out: Affinity (KD), cited from earlier work.
The target of data set [2] is PD-L1 protein. The note with it: Table S6, supplement reference list, read-out: Affinity (KD), cited from earlier work. An excerpt:
Supplement mmc1.docx, table 8: Table S6. […] D - amino acids are marked with a lowercase letter. NB - no binding; ND - no data; JD - no name given by the authors. | column: Affinity (KD) [µM]

Data set [3] in a line: Solubility in water. The data set is classed as physicochemical. An excerpt:
To increase solubility, its sequence was elongated at the N- and C-terminals by adding hydrophilic amino acids from the protein sequence. […] These modifications were introduced to prevent the oxidation of methionine and cysteine.

Data set [4] concerns the target programmed cell death 1 (PD-1) (human, UniProt Q15116 25-170). The experiment in a line: SPR; Biacore T200; biotin-(Gly)5-peptides immobilised on an SA sensor chip (~800 RU, L1 ~500 RU); PD-1 injected at 0.31-10 µM (two-fold dilutions); PBS-P running buffer, 30 µl/min, 25°C; 1:1 binding model, at least three titrations. The note with it: both partners purified.

Read-outs that look alike come from different tables or passages of the source. Ends that are not written are not given here. Peptide text beside a SMILES is read from it.

Chain of programmed cell death 1 (PD-1) (Q15116 25-170): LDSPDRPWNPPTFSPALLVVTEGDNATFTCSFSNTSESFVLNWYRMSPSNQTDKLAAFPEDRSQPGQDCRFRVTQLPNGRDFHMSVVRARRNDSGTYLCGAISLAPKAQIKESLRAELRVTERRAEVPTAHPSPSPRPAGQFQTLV

For the molecule GNWDANSQRAQLYNQ [Ar5Y_4 Y5A], the dissociation constant Kd in data set [1] (ref [3]) is 20.2 µM.

Regarding “SHHHRLSRLKEIANSPTQFWRMVARNTLGNGAKQSLNIEHARL [nABPD1]”, the dissociation constant Kd in data set [1] (ref [18]) was 0.0119 µM.

GNWDYNSQRAQLANQ [Ar5Y_4 Y13A]: the Kd in data set [1] (ref [3]) was 10.2 µM.

LDYVNRRKMYQ [Ar5M_2]: the Kd in data set [1] (ref [3]) is 3.32 µM.

For the molecule CRAMISYGGADYK-(N-Me-Arg)-IC [MN1.4], in data set [1] (ref [21]), the Kd is 2 µM.

For the molecule TEKDYRHGNIRMKLAYDL [Ar5Y_3], in data set [1] (ref [3]), the Kd is 3.13 µM. As for “SRLKEIANSPTQFWRMVARNTLGNGAKQSLNIEHARL [nABP284]”, the dissociation constant (Kd) in data set [1] (ref [18]) is 11.8 µM. As for DWIKANYDETAEYNKEAK [Peptide 4F-30], in data set [2] (ref [47]), the equilibrium dissociation constant (Kd) was 419 µM.

Regarding KSKAVNRVSQESEM [Pep6], in data set [1] (ref [12]), the dissociation constant (Kd) was 66.4 µM. As to `CCCC[C@H](NC(=O)[C@H](CCC(=O)O)NC(=O)[C@H](Cc1c[nH]c2ccccc12)NC(=O)[C@H](Cc1ccc(O)cc1)NC(=O)[C@@H](NC(=O)[C@@H](NC(=O)[C@H](CC(C)C)NC(=O)[C@H](C)NC(C)=O)[C@@H](C)CC)C(C)C)C(=O)N[C@@H](CCC(=O)O)C(=O)N[C@@H](CC(=O)O)C(=O)N[C@@H](CCCCN)C(=O)N[C@@H](CC(N)=O)C(=O)N[C@H](C(=O)N[C@H](C(=O)N[C@@H](CCC(N)=O)C(=O)N[C@@H](Cc1ccccc1)C(=O)N[C@H](C(N)=O)C(C)C)[C@@H](C)CC)[C@@H](C)CC` [Peptide L2] (HELM PEPTIDE1{[ac].A.L.I.V.Y.W.E.[Nle].E.D.K.N.I.I.Q.F.V.[am]}$$$$V2.0), the “Solubility in water” value in data set [3] is on record as “poorly soluble in water”.

In the case of FSGTVTTAGLLF [P-F4], in data set [1] (ref [17]), the Kd is 0.119 µM. Turning to RRQWFW [JD2], in data set [1] (ref [19]), the Kd was 4.38 µM. On to LDYDGRLSQ [Ar4_2], for which the dissociation constant (Kd) in data set [1] (ref [3]) is 83.9 µM. In the case of WHFSYNWRWLPP [CLP003], the Kd in data set [1] (ref [10]) is 0.117 µM. In the case of RTMIWYpPAWYKRI [Peptide P2.1], the Kd in data set [1] (ref [11]) was 29.2 µM.

For RRWQWR [WANG-005], in data set [1] (NB = no binding, ref [6]), the equilibrium dissociation constant (Kd) is 5.1 µM.

Regarding WDYD [Ar3_1], in data set [1] (ref [3]), the Kd was 22.3 µM. As to QYRCNGTSSKGSDQAIITLRV [Pep14], the Kd in data set [1] (ref [12]) was 10.9 µM. With RCMICYGGADYKRI [Peptide P1.1], in data set [1] (ref [11]), the Kd was 3.66 µM.

Regarding FNWDYSWKSERLKEAYDL [Ar5Y_1], the Kd in data set [1] (ref [3]) was 3.39 µM. As to RCMISYpGADYKRI [Peptide P1.2], the dissociation constant (Kd) in data set [1] (ref [11]) is 83 µM. Turning to SGQYASYHCWCWRDPGRSGGSK [TPP-1], in data set [2] (ref [34]), the Kd was 0.095 µM. Consider FNWDYSLEELREKAKYK [Ar5Y_2], for which the Kd in data set [1] (ref [3]) was 3.14 µM.

GDWFKAYYDKVAEG [Peptide 4F-8]: the dissociation constant Kd in data set [2] (ref [47]) is 412 µM. On to RRWWRR [JD1], for which, in data set [1] (ref [19]), the Kd is 4.01 µM. For the molecule `CCCC[C@H](NC(=O)[C@H](CCC(=O)O)NC(=O)[C@H](Cc1c[nH]c2ccccc12)NC(=O)[C@H](Cc1ccc(O)cc1)NC(C)=O)C(=O)N[C@@H](CCC(=O)O)C(=O)N[C@@H](CC(=O)O)C(=O)N[C@@H](CCCCN)C(=O)N[C@@H](CC(N)=O)C(=O)N[C@H](C(=O)N[C@H](C(=O)N[C@@H](CCC(N)=O)C(N)=O)[C@@H](C)CC)[C@@H](C)CC` [Peptide L6] (HELM PEPTIDE1{[ac].Y.W.E.[Nle].E.D.K.N.I.I.Q.[am]}$$$$V2.0), the “Solubility in water” value in data set [3] is reported as “no positive effect on the solubility”. For the molecule LDYGDKREGQMAE [Ar5M_1], in data set [1] (ref [3]), the Kd was 21.6 µM. Turning to GQSEHHMRVYSF [OPBP-1], the Kd in data set [2] (ref [38]) is 0.667 µM. Turning to SHFSASYDKYAEKF [Peptide 4F-16], the equilibrium dissociation constant (Kd) in data set [2] (ref [47]) was 49.4 µM. For VFELRHSKRKDSRTVY [Pep2], the equilibrium dissociation constant (Kd) in data set [1] (ref [12]) is 127 µM.

As to DYHDPSLPTLRK [CLP004], the Kd in data set [1] (ref [10]) is 0.544 µM.

Take CLQKTPKQC [PD-L1Pep-1]: the dissociation constant (Kd) in data set [2] (ref [36]) was 0.373 µM. As for GNWDYNSQAAQLYNQ [Ar5Y_4 R9A], in data set [1] (ref [3]), the dissociation constant (Kd) was 21.2 µM. Regarding FRWWR [WANG-004], the Kd in data set [1] (NB = no binding, ref [6]) was 1.6 µM. Turning to LERHDFGDGRARYEE [Pep10], in data set [1] (ref [12]), the Kd was 39 µM.

As for LEYWSSGSTTMYGL [Pep9], the Kd in data set [1] (ref [12]) is 36.4 µM. With GTRLKPLIICVQWPGL [PD-L1ip3], the Kd in data set [2] (ref [40]) is 33 µM. As to RTMIWYGpAWYKRI [Peptide P2.3], the dissociation constant Kd in data set [1] (ref [11]) is 129 µM.

In the case of CVRARTR [PD-L1Pep-2], the Kd in data set [2] (ref [36]) is 0.281 µM. As for [CKWYRPSEC] [Peptide C8], in data set [1] (ref [16]), the equilibrium dissociation constant (Kd) is 0.64 µM. KRWWR [WANG-003]: the equilibrium dissociation constant (Kd) in data set [1] (NB = no binding, ref [6]) is 3.3 µM. With RTCITYpGADYCRI [Peptide P1.4], the Kd in data set [1] (ref [11]) was 474 µM. Take GIDYEERWK [Ar4_1]: the Kd in data set [1] (ref [3]) was 28.3 µM. For TSEVDNGVGKPQKHS [Pep3], the equilibrium dissociation constant (Kd) in data set [1] (ref [12]) was 81.1 µM. Regarding RTMIWYAAAWYKRI [Peptide P2.2], the Kd in data set [1] (ref [11]) was 55.2 µM.

Regarding WHRSYYTWNLNT [CLP002], the Kd in data set [1] (ref [10]) was 0.366 µM. As to “CVYRCMISYGGADYKRITC (disulfide (positions not given here)) [ΔDS-II [C110–C128]]”, the Kd in data set [1] (ref [8]) was 11.6 µM.

As to [TMYLerRYpD] [PD-i3], the Kd in data set [1] (ref [13]) was 102 µM.

For the molecule LETWFGKEILVKT [Pep1], the Kd in data set [1] (ref [12]) is 140 µM.

As for DWFKAFYDKINETYNK [Peptide 4F-32], the Kd in data set [2] (ref [47]) was 0.017 µM. For GNWAYNSQRAQLYNQ [Ar5Y_4 D4A], the Kd in data set [1] (ref [3]) is 18.9 µM. Turning to “CYRCMISYGGADYKRIC (disulfide (positions not given here))”, the Kd in data set [1] (ref [8]) is 17.5 µM. In the case of TFKVEDRYGQGQQILD [Pep4], in data set [1] (ref [12]), the Kd was 22.7 µM. Regarding HYPFRPHANQAS [CLP001], in data set [1] (ref [10]), the dissociation constant Kd is 0.534 µM. Take GNADYNSQRAQLYNQ [Ar5Y_4 W3A]: in data set [1] (ref [3]), the equilibrium dissociation constant (Kd) was 8.08 µM. On to GNWDYNSQRAQLYNQ [Ar5Y_4], for which the Kd in data set [1] (ref [3]) is 1.38 µM. In the case of SGQQRTSADCWEDHGWGSGGSK [PBP], the Kd in data set [1] (ref [22]) is 17.4 µM.

B1: PD-L1(111-127), biotin-(Gly)5 form (peptide)
chain: VYRCMISYGGADYKRIT
HELM: PEPTIDE1{[O=C1N[C@H]2[C@H](CS[C@H]2CCCCC(=O)[*:2])N1].G.G.G.G.G.V.Y.R.[Abu].[Nle].I.S.Y.G.G.A.D.Y.K.R.I.T.[am]}$$$$V2.0
SMILES: CCCC[C@H](NC(=O)[C@H](CC)NC(=O)[C@H](CCCNC(=N)N)NC(=O)[C@H](Cc1ccc(O)cc1)NC(=O)[C@@H](NC(=O)CNC(=O)CNC(=O)CNC(=O)CNC(=O)CNC(=O)CCCC[C@@H]1SC[C@@H]2NC(=O)N[C@@H]21)C(C)C)C(=O)N[C@H](C(=O)N[C@@H](CO)C(=O)N[C@@H](Cc1ccc(O)cc1)C(=O)NCC(=O)NCC(=O)N[C@@H](C)C(=O)N[C@@H](CC(=O)O)C(=O)N[C@@H](Cc1ccc(O)cc1)C(=O)N[C@@H](CCCCN)C(=O)N[C@@H](CCCNC(=N)N)C(=O)N[C@H](C(=O)N[C@H](C(N)=O)[C@@H](C)O)[C@@H](C)CC)[C@@H](C)CC
Regarding B1, in data set [4], the off-rate constant (koff) was 0.00179 s⁻¹ and the on-rate constant (kon) came out at 10.9 M⁻¹ s⁻¹.

B2: PD-L1(110-128)(V111C-T127C), biotin-(Gly)5 form (peptide)
chain: GCYRCMISYGGADYKRICV
HELM: PEPTIDE1{[O=C1N[C@H]2[C@H](CS[C@H]2CCCCC(=O)[*:2])N1].G.G.G.G.G.G.C.Y.R.[Abu].[Nle].I.S.Y.G.G.A.D.Y.K.R.I.C.V.[am]}$PEPTIDE1,PEPTIDE1,8:R3-24:R3$$$V2.0
SMILES: CCCC[C@@H]1NC(=O)[C@H](CC)NC(=O)[C@H](CCCNC(=N)N)NC(=O)[C@H](Cc2ccc(O)cc2)NC(=O)[C@@H](NC(=O)CNC(=O)CNC(=O)CNC(=O)CNC(=O)CNC(=O)CNC(=O)CCCC[C@@H]2SC[C@@H]3NC(=O)N[C@@H]32)CSSC[C@@H](C(=O)N[C@H](C(N)=O)C(C)C)NC(=O)[C@H]([C@@H](C)CC)NC(=O)[C@H](CCCNC(=N)N)NC(=O)[C@H](CCCCN)NC(=O)[C@H](Cc2ccc(O)cc2)NC(=O)[C@H](CC(=O)O)NC(=O)[C@H](C)NC(=O)CNC(=O)CNC(=O)[C@H](Cc2ccc(O)cc2)NC(=O)[C@H](CO)NC(=O)[C@H]([C@@H](C)CC)NC1=O
In data set [4], B2 returned a koff of 0.00071 s⁻¹ and a kon of 33.1 M⁻¹ s⁻¹.

B3: PD-L1(113-126), biotin-(Gly)5 form (peptide)
chain: RCMISYGGADYKRI
HELM: PEPTIDE1{[O=C1N[C@H]2[C@H](CS[C@H]2CCCCC(=O)[*:2])N1].G.G.G.G.G.R.[Abu].[Nle].I.S.Y.G.G.A.D.Y.K.R.I.[am]}$$$$V2.0
SMILES: CCCC[C@H](NC(=O)[C@H](CC)NC(=O)[C@H](CCCNC(=N)N)NC(=O)CNC(=O)CNC(=O)CNC(=O)CNC(=O)CNC(=O)CCCC[C@@H]1SC[C@@H]2NC(=O)N[C@@H]21)C(=O)N[C@H](C(=O)N[C@@H](CO)C(=O)N[C@@H](Cc1ccc(O)cc1)C(=O)NCC(=O)NCC(=O)N[C@@H](C)C(=O)N[C@@H](CC(=O)O)C(=O)N[C@@H](Cc1ccc(O)cc1)C(=O)N[C@@H](CCCCN)C(=O)N[C@@H](CCCNC(=N)N)C(=O)N[C@H](C(N)=O)[C@@H](C)CC)[C@@H](C)CC
In data set [4], B3 showed a koff of 0.000194 s⁻¹ and an association rate constant (kon) of 24.7 M⁻¹ s⁻¹.
